The text below walks through data of patent US20210183469A9, “COMPUTATIONAL PLATFORM FOR IN SILICO COMBINATORIAL SEQUENCE SPACE EXPLORATION AND ARTIFICIAL EVOLUTION OF PEPTIDES” (priority 2018, published 2021).

The subject of one data set is human erythrocytes. Put plainly: Hemolytic assay. To be noted: 1 h at 37° C., 100% of hemolysis was not observed.
Another data set relates to E. coli (ATCC 25922). Put plainly: Membrane polarization assay with DiSC3(5). The class given is cell-based, Escherichia coli. As to conditions: melittin positive control. As for the experimental part: When the cytoplasmic membrane is intact, the fluorescent probe DiSC3(5) accumulates into the cytoplasmic membrane and then aggregates, causing self-quenching of the fluorescence. In the presence of a membrane-depolarizing agent, DiSC3(5) is released into the medium, leading to an increase in fluorescence that can be monitored over time. The experiment was performed as previously described (André et al., ACS Chem. Biol. 2015 Jul. 30; 10(10): 2257-66). Briefly, exponentially growing bacteria were centrifuged (1000×g, 10 min, 4° C.), washed with PBS and re-suspended in the same buffer to an A630 of 0.1; then 700 µL of bacteria were pre-incubated with 1 μM DiSC3(5) in the dark during 10 min at 37° C., and then 100 μL of 1 mM KCl were added in order to equilibrate the cytoplasmic and external K+ concentrations. […] Three independent experiments were performed and results correspond to a representative experiment with negative (PBS) and positive (melittin) controls.

Another data set relates to E. coli ATCC 25922. Put plainly: SYTOX Green uptake assay (cytoplasmic membrane permeabilization). As to conditions: 5 μM, positive control. In kind it is cell-based, Escherichia coli. As for the experimental part: The guavanin 2-induced permeabilization of the bacterial cytoplasmic plasma membrane of E. coli ATCC 25922 was determined by fluorometric measurement of SYTOX green (SG) influx (Thevissen et al., Appl. Environ. Microbiol. 1999 December; 65(12): 5451-8). SG is a high-affinity nucleic acid dye that is impermeant to live cells. When the cell membrane is damaged, this dye penetrates into the cell and binds to intracellular DNA, leading to an increase in fluorescence. For SG uptake assay, exponentially growing bacteria (6×10^5 CFU·mL^−1) were re-suspended in PBS after centrifugation (1000×g, 10 min, 4° C.) and washing steps. 792 μL of the bacterial suspension was pre-incubated with 8 μL of 100 μM SG during 30 min at 37° C. in the dark. […] Three independent experiments were performed and results correspond to a representative experiment with negative (PBS) and positive (melittin) controls.

Data set [1] deals with bioluminescent engineered P. aeruginosa strain H1001. Put plainly: Antimicrobial activity by bioluminescence assay (SPOT-synthesized peptides). To be noted: SPOT-synthesized unpurified crude peptide (~70% purity). In kind it is cell-based, Pseudomonas aeruginosa. How it is done:
A peptide array composed of 20 peptides (15 guavanins, 4 Pg-AMP1 fragments and magainin 2) was designed and synthesized by Kinexus Bioinformatics Corporation (Vancouver, BC). Peptides were produced in a standard mass of 80 μg by using cellulose support in SPOT technology, as previously described by Winkler et al. Methods Mol. Biol. 2009; 570: 157-74. The crude synthetic peptides were obtained from cellulose membrane discs that had already been treated with ammonia gas to release the peptides from the membrane. Peptides were then dissolved overnight in distilled water and subsequently evaluated for their biological activities, as described below.
The antimicrobial activity of the synthesized peptides was evaluated against an engineered luminescent Pseudomonas aeruginosa H1001 strain in 96-well microplates, as described previously with a few modifications (Hilpert & Hancock, Nat. Protoc. 2007; 2(7): 1652-60). […] Luminescence was measured on a Tecan […]luor Plus Microplate Reader (Tecan US, Morrisville, N.C.). The antimicrobial activity was evaluated by the ability of the peptides to reduce the luminescence of P. aeruginosa-lux strain compared to untreated cells. […]

The test system of a further data set is HEK-293 cells. The experiment in a line: Cytotoxicity, MTT-based microassay. The class given is cell-based, human. As to conditions: 72 h, read-out: Active Concentration (inhibitory concentration 50, IC50). As for the experimental part: HEK-293 cells were cultured in DMEM medium, and incubated at 37° C. in a humidified atmosphere of 5% CO2. Cell viability was quantified after peptide incubation using a methylthiazolyldiphenyl-tetrazolium bromide (MTT)-based microassay (Riss et al., (eds. Sittampalam, G. et al.) (Bethesda (Md.), 2004)). […] Then, 10 μl of MTT (5 mg·mL^−1 in PBS) was added to each well and the cells were further incubated for 4 h in the dark. The formazan crystals formed by mitochondrial reductases in intact cells are insoluble in aqueous solutions and precipitate. Formazan crystals were dissolved using a solubilization solution (40% dimethylformamide in 2% glacial acetic acid, 16% sodium dodecyl sulfate, pH 4.7) followed by 1 h incubation at 37° C. under shaking (150 rpm). Finally, the absorbance of the resuspended formazan was measured at 570 nm. Data were analyzed with GraphPad Prism® 5.0 software to determine the inhibitory concentration 50 (IC50), which corresponds to the peptide concentration producing 50% cell death. Results were expressed as the mean of three independent experiments performed in triplicate.

In data set [2] the test system is Listeria ivanovii Li4pVS2.
Method: Staphylococcus aureus ATCC 25923, Enterococcus faecalis ATCC 29212, Escherichia coli ATCC 25922, Pseudomonas aeruginosa ATCC 27853, Acinetobacter baumannii ATCC 19606 and Klebsiella pneumoniae ATCC 13883 were cultured in Lysogeny Broth (LB). The bacteria Streptococcus pyogenes ATCC 19615 and Listeria ivanovii Li 4pVS2 were cultured in Brain Heart Infusion (BHI) broth, whereas Candida species (C. albicans ATCC 90028 and C. parapsilosis ATCC 22019) were cultured in Yeast Peptone Dextrose (YPD) medium. Logarithmic phase culture of bacteria and yeasts were centrifuged and suspended in MH (Mueller Hinton) broth to an A630 of 0.01 (˜10^6 CFU·mL^−1), except for S. pyogenes, L. ivanovii and E. faecalis that were suspended in their respective growth medium. […] After 18 h incubation at 37° C. (30° C. for yeasts), the antimicrobial susceptibility was monitored by measuring the change in A630 using a microplate reader (UVM 340, Asys Hitech). […] Each experiment was performed in triplicate with positive (0.7% formaldehyde) and negative (without peptide) inhibition controls.
Data set [3] has as its system Acinetobacter baumannii ATCC 19606. The experiment in a line: MIC, two-fold serial dilution in microtitre plates. In kind it is cell-based. How it is done: (§1) After 18 h incubation at 37° C.
In data set [4] the test system is Escherichia coli ATCC 25922. The experiment in a line: MIC, two-fold serial dilution in microtitre plates. As to conditions: average of three independent experiments. The class given is cell-based. How it is done:
as §1

The next data set can be described thus: in vitro. To be noted: human.

No end group written: not given here.

Usually MIC stands for the lowest concentration that inhibits growth of the organism. A high value points to a need for much substance.

Method for human erythrocytes: (§2) Fresh human venous blood was collected from volunteers in Vacutainer collection tubes containing sodium heparin as an anticoagulant (BD Biosciences, Franklin Lakes, N.J.). The blood was centrifuged at 1500 rpm and the serum was removed and the blood cells were replaced and washed 3 times with the same volume of sterile NaCl 0.85% solution. Concentrated red blood cells were diluted tenfold in NaCl 0.85% solution and then exposed at two-fold dilutions of peptides for 1 h at 37° C., at identical concentrations used for antimicrobial assays, in the ratio of 1:1 (v/v), achieving a final volume of 100 uL. The assay was carried out in 96-well polypropylene microtiter plates. The positive control wells contained 1% of Triton X-100, representing 100% cell lysis, and negative control wells contained sterile saline. Hemoglobin release was monitored chromogenically at 546 nm using a microplate reader.
Method for in vitro: as §2

For the molecule `N=C(N)NCCC[C@H](NC(=O)CNC(=O)[C@H](CO)NC(=O)CNC(=O)[C@H](Cc1ccc(O)cc1)NC(=O)CNC(=O)CNC(=O)CNC(=O)[C@H](Cc1ccc(O)cc1)NC(=O)[C@H](CCCNC(=N)N)NC(=O)CNC(=O)CNC(=O)CNC(=O)[C@H](Cc1ccc(O)cc1)NC(=O)CNC(=O)CNC(=O)[C@H](Cc1ccc(O)cc1)NC(=O)CNC(=O)[C@@H](N)Cc1ccc(O)cc1)C(=O)NCC(N)=O` [Fragment 3], the Hemolysis with human erythrocytes is greater than 200 µg/mL.

With `CC[C@H](C)[C@H](NC(=O)CN)C(=O)NCC(=O)N[C@@H](C)C(=O)N[C@H](C(=O)N[C@@H](CC(C)C)C(=O)N[C@@H](CCCCN)C(=O)N[C@H](C(=O)N[C@@H](CC(C)C)C(=O)N[C@H](C(=O)N[C@H](C(=O)NCC(=O)N[C@@H](CC(C)C)C(=O)N1CCC[C@H]1C(=O)N[C@@H](C)C(=O)N[C@@H](CC(C)C)C(=O)N[C@H](C(=O)N[C@@H](CO)C(=O)N[C@@H](Cc1c[nH]c2ccccc12)C(=O)N[C@H](C(=O)N[C@@H](CCCCN)C(=O)N[C@@H](CCCNC(=N)N)C(=O)N[C@@H](CCCCN)C(=O)N[C@@H](CCCNC(=N)N)C(=O)N[C@@H](CCC(N)=O)C(=O)N[C@@H](CCC(N)=O)C(N)=O)[C@@H](C)CC)[C@@H](C)CC)[C@@H](C)O)[C@@H](C)O)C(C)C)C(C)C` [melittin], the “DiSC3(5) fluorescence (membrane potential)” value with E. coli (ATCC 25922) was “rapid increase in the fluorescence signal”. Moreover, the “SYTOX Green (SG) fluorescence signal” value in the data set on E. coli ATCC 25922 is “rapid and maximal SG fluorescence signal”.

In turn, GQPVGQGVERSHDDNRNQPR-NH2 [Fragment 4] displayed a Hemolysis in the data set on human erythrocytes greater than 200 µg/mL.

In [1], “H-GIGKFLHSAKKFGKAFVGEIMNS-OH [Magainin 2, reference compound]” had an MIC of 100 µg/mL. Besides, the Hemolysis in the data set with human erythrocytes was greater than 200 µg/mL.

RAYMEALRQAERLGNRTARR-NH2 [Guavanin 9]: the Hemolysis with human erythrocytes is greater than 200 µg/mL.

As to RKLMELYEQAIRYGKRSYRR-NH2 [Guavanin 12], the Hemolysis in the data set on human erythrocytes was greater than 200 µg/mL.

The molecule RKLMEMYEEAFRYFNRISRR-NH2 [Guavanin 5] came in with a Hemolysis in the data set with human erythrocytes greater than 200 µg/mL.

Molecule RKLVECYERAERDANRSGRR-NH2 [Guavanin 15] came in with a Hemolysis with human erythrocytes greater than 200 µg/mL.

As for RKYMRQYEEAIRDGNRSIRR-NH2 [Guavanin 3], in the data set on human erythrocytes, the Hemolysis was greater than 200 µg/mL.

Regarding RQIYESIEQALRRGYRSYRR-NH2 [Guavanin 7], the Hemolysis with human erythrocytes was greater than 200 µg/mL.

Turning to RQLMELIEQAERYGNRFYRR-NH2 [Guavanin 11], the Hemolysis in the data set on human erythrocytes is greater than 200 µg/mL.

In the case of RQYMRQIEQALRYGYRISRR-NH2 [Guavanin 2], in the data set with HEK-293 cells, the IC50 was greater than 200 µM. In the data set on human erythrocytes, the Hemolysis is greater than 200 µg/mL. In addition, the “Active Concentration (MIC)” value amounted to 50 µM in data set [2], 6.25 µM in [3] and 6.25 µM in data set [4]. This molecule displayed a CC50 at 1 h in the data set “in vitro” greater than 200 µM.

In the case of RQYMRYLEQAERYVNRNLRR-NH2 [Guavanin 4], the Hemolysis in the data set on human erythrocytes was greater than 200 µg/mL.

Regarding RRGMKQYERISRDANRSYRR-NH2 [Guavanin 1], in the data set on human erythrocytes, the Hemolysis is greater than 200 µg/mL.

In turn, RRYMECYEQAERYFRRFGRR-NH2 [Guavanin 13] showed a Hemolysis in the data set with human erythrocytes greater than 200 µg/mL.

Molecule RSFMKCYEQASRYGNRILRR-NH2 [Guavanin 14] had a Hemolysis in the data set with human erythrocytes greater than 200 µg/mL.

The molecule RSIMELYKQASRSFNRGIRR-NH2 [Guavanin 6] displayed a Hemolysis with human erythrocytes greater than 200 µg/mL.

In the case of RSYYEAYERALRKGQRGIRR-NH2 [Guavanin 8], the Hemolysis in the data set on human erythrocytes is greater than 200 µg/mL.

In the case of RYGYGGYGGGRYGGGYGSGR-NH2 [Fragment 2], the Hemolysis with human erythrocytes was 100 µg/mL; in the data set with human erythrocytes (listed as 2nd fragment), “hemolytic”.

Take RYLMEYAEQAKRDAKRAYRR-NH2 [Guavanin 10]: the Hemolysis with human erythrocytes was greater than 200 µg/mL.

Turning to SSRMECYEQAERYGYGGYGG-NH2 [Fragment 1], the Hemolysis in the data set on human erythrocytes is greater than 200 µg/mL.
